One series concerns polyclonal T cells. Description: Cytokine quantification in T-cell supernatants by ELISA. The format is cell-based, mouse. To be noted: supernatants day 2, ELISA, αCD3/CD28 bead-stimulated T cells, n = 5. The protocol: (§1) Naïve T cells were labeled with 5 μM of carboxyfluorescein succinimidyl ester (CFSE, ThermoFisher). Labeled cells were cultured in RPMI 1640 media and supplemented with 10% FBS as well as αCD3/CD28 coated Dynabeads^TM (Thermo) at a 1:5 bead to T cell ratio after depoting of lipid-CpG, Pam2CSK4, and/or Pam3CSK4 ligands. Non-depoted T cells were treated with soluble lipid-CpG (5 μM), Pam2CSK4 (10 μg/mL), and/or Pam3CSK4 (10 μg/mL). Cell proliferation was measured by CFSE dilution after 3 days, and cell activation was measured by fluorescent staining for CD25 (clone PC61; PE). Cell proliferation index and division index were calculated using FlowJo LLC software. Proliferation index is defined as the total number of cell divisions divided by the number of divided cells, whereas division index is the total number of cell divisions divided by the number of total original cells ([24]). Paracrine-enhanced proliferation of bystander T cells was measured as described above, with αCD3/CD28 beads added at a 2:5 bead to T-cell ratio.
T-cell activation was analyzed by collecting supernatants on day 2 post-activation for IL-2, IL-4, and IFNγ quantification by ELISA per manufacturer's instructions (BioLegend).
(In general: In an ELISA, binding on a coated surface is turned into a signal by an enzyme label.)

The next series concerns purified mouse T cells. The experiment in a line: ELISA quantification of depoted lipid conjugates per T cell. The format is cell-based. To be noted: for ng/mL (equivalent in solution): Table S1, estimated dose on depoted T cells; for # Ligands/T cell: Table S1, quantitation of cell surface TLR2 ligands by ELISA, depoted 10 μg/mL, 1 h; for fold increase in number of depoted molecules per T cell, 0.1 to 10 μg/mL depoting concentration: biotinylated ligand, cell lysate, streptavidin-HRP/TMB absorbance 450 nm, n = 3-4 independent samples. Here is the method:
(§2) Unless specified otherwise (in Figure 2), splenocytes, isolated B cells, or isolated T cells were incubated with CpG (5 μM), lipid-CpG (5 μM), Pam2CSK4 (10 μg/mL), or Pam3CSK4 (10 μg/mL) for 1 h in complete RPMI 1640 media supplemented with 10% fetal bovine serum. Splenocytes or T cells were then washed 3 times with PBS plus 1% bovine serum albumin to remove unbound ligand.
One million purified T cells were depoted with FAM-labeled lipid-CpG, biotinylated Pam2CSK4, or biotinylated Pam3CSK4 as described above, and then lysed with Glo lysis buffer (Promega) for 10 min at 25°C. Lysates were collected and plated onto Nunc MaxiSorp ELISA plates (Thermo). After 2 h of incubation at 25°C, FAM-labeled lipid-CpG was excited at 488 nm, and fluorescent emission at 520 nm was quantified by a microplate fluorescence reader. For Pam2CSK4 and Pam3CSK4 samples, horseradish peroxidase (HRP)-labeled streptavidin was added for 2 h incubation at 25°C, and then TMB substrate (Thermo) was added to observe changes in absorbance at 450 nm with a microplate spectrophotometer (BioTek).

For series [1] the following is noted: stated as much higher than the input concentration; cited from earlier work. An excerpt:
Thus, multiple lipid tails are a key design parameter for membrane delivery, and may be a simple way to enhance delivery of cargo to plasma membranes. One explanation of lipid-mediated insertion of TLR2 lipid-ligands, i.e., Pam2CSK4 and Pam3CSK4, into plasma membr ...

Series [2] deals with bystander B cells (TLR2+ APCs). Description: Bystander B-cell activation by TLR2 ligand-depoted T cells. The format is cell-based, mouse. To be noted: for CD69 upregulation on B cells (fold MFI) / MHC II upregulation on B cells (fold MFI): T cells depoted 10 μg/mL 1 h, co-culture with B cells 2 days, MFI normalized to unstimulated B cells, n = 5-6 independent experiments; for CD69 expression, depoted vs same dose of soluble ligand / MHC II expression, depoted vs same dose of soluble ligand: soluble dose 10 ng/mL Pam2CSK4, 2 ng/mL Pam3CSK4; for B-cell activation by dose-matched soluble ligand: 10 ng/mL Pam2CSK4, 2 ng/mL Pam3CSK4. Here is the method:
as §2
Naïve or primed T cells were rested in complete RPMI 1640 media and supplemented with 10% FBS after depoting with Pam2CSK4 or Pam3CSK4 as described above. At selected time-points (0, 1, 2, 5, or 8 days post-depoting), T cells were washed and fixed with 4% paraformaldehyde (Sigma) for 15 min at 25°C. After washing 5 times with PBS + 1% BSA, at 1,000 × g for 5 min, T cells were cultured in complete RPMI 1640 media and supplemented with 10% FBS. Bystander B cells were added in co-cultures at a 1:1 B cell:T cell ratio. Naïve T cells without fixation were immediately cultured with bystander B cells. After 2 days of incubation at 37°C and 5% CO2, B-cell activation was measured by fluorescent staining for MHCII (clone M5/114.15.2; FITC) and CD69 (clone H1.2F3; PerCP/Cy5.5).

In series [3] the test system is depoted and bystander CD4+ and CD8+ T cells. Description: Paracrine-enhanced proliferation: depoted T cells co-cultured with bystander T cells. The conditions noted are these: αCD3/CD28 beads 3 days, n = 5. The format is cell-based, mouse. The protocol:
as §1

A further series relates to CD4+ and CD8+ T cells. Description: T-cell activation assay (CFSE proliferation, αCD3/CD28 beads). The format is cell-based, mouse. To be noted: αCD3/CD28 beads 3 days, CFSE dilution. The protocol: as §1
Setting [4] is: co-culture with depoted T cells.
[5] abbreviates: co-culture with non-depoted T cells.

Consider Pam2CSK4, for which the “increase in IL-2 levels, depoted vs soluble ligand” value with polyclonal T cells was found to be 2.7 fold. Also, in the series on purified mouse T cells, the “ng/mL (equivalent in solution)” value was 9.6 ng/mL; the “# Ligands/T cell” value is 1.3E+07; the “fold increase in number of depoted molecules per T cell, 0.1 to 10 μg/mL depoting concentration” value is 130 fold. The critical micelle concentration in series [1] was over 10 µg/mL. Further, in series [2], the “CD69 upregulation on B cells (fold MFI)” value is 3.8 fold; the “MHC II upregulation on B cells (fold MFI)” value was 19 fold; the “B-cell activation by dose-matched soluble ligand” value was “none of the dose-matched soluble Pam2CSK4 and Pam3CSK4 activated B cells”. In addition, in series [2] (2 days co-culture), the “CD69 expression, depoted vs same dose of soluble ligand” value is reported as 2.2 fold and the “MHC II expression, depoted vs same dose of soluble ligand” value stood at 5.3 fold.
On to Pam3CSK4, for which, in series [3] (setting [4]), the “bystander CD4+ T-cell division index vs soluble ligand” value was found to be 1.3 fold and the “bystander CD8+ T-cell division index vs soluble ligand” value was 1.3 fold. Besides, in series [3] (setting [5]), the “CD4+ T-cell division index of depoted cells vs soluble ligand” value is on record as 1.6 fold and the “CD8+ T-cell division index of depoted cells vs soluble ligand” value amounted to 1.6 fold. Further, the “increase in IL-2 levels, depoted vs soluble ligand” value in the series on polyclonal T cells is listed as 3.4 fold. For the same substance, in the series on purified mouse T cells, the “ng/mL (equivalent in solution)” value was 1.8 ng/mL; the “# Ligands/T cell” value was determined as 2.0E+06; the “fold increase in number of depoted molecules per T cell, 0.1 to 10 μg/mL depoting concentration” value is on record as 2.2 fold. Besides, in series [1], the critical micelle concentration is over 10 µg/mL. For the same substance, in the series with CD4+ and CD8+ T cells (Figure S5), the “CD8+ T-cell proliferation index, effect of depoting” value is on record as “did enhance”. In the series on CD4+ and CD8+ T cells (n = 3), the “CD4+ T-cell division index, depoted vs soluble ligand” value is recorded as 1.9 fold and the “CD8+ T-cell division index, depoted vs soluble ligand” value is 2.9 fold. In series [2] (2 days co-culture), the “MHC II expression, depoted vs 10 μg/mL of soluble ligand” value amounted to 1.5 fold; the “CD69 expression, depoted vs same dose of soluble ligand” value came out at 2.8 fold; the “MHC II expression, depoted vs same dose of soluble ligand” value worked out at 6.1 fold. For the same substance, in series [2], the “CD69 upregulation on B cells (fold MFI)” value turned out to be 4.4 fold; the “MHC II upregulation on B cells (fold MFI)” value was determined as 21 fold; the “B-cell activation by dose-matched soluble ligand” value is “none of the dose-matched soluble Pam2CSK4 and Pam3CSK4 activated B cells”.

Source of the values: paper PMC7212467, “Lipid-Mediated Insertion of Toll-Like Receptor (TLR) Ligands for Facile Immune Cell Engineering” (Frontiers in Immunology, 2020).
